Laboratory results taken from US20050080054A1, “Treating androgen decline in aging male (ADAM)-associated conditions with SARMS” (priority 2002, published 2005).

Assays:
Type in all cases: in vivo, rat
[1] = tested on: female rats after ovariectomy; test: Bone mineral content (DEXA) in female rats after ovariectomy
Protocol: One hundred ten female rats were assigned to one of eleven treatment groups. Groups 1-8 were ovariectomized on day one of the study. Groups 9-11 were intact animals. Groups 1-6 received Compound VI by daily subcutaneous injection at doses of 0.1, 0.3, 0.5, 0.75, 1.0, and 3 mg/day, respectively. Groups 7 and 11 received dihydrotestosterone (DHT) at a dose of 1 mg/day. Groups 8 and 9 were ovariectomized and intact control groups, respectively. Group 10 received Compound VI at a dose of 1.0 mg/day. All animals were treated for 120 days. Bone mineral content (BMC) was determined using dual energy x-ray absorptiometry (DEXA) on days 1, 30, 60, 90, and 120.

[2] = tested on: androgen-responsive tissues (prostate, seminal vesicles, levator ani muscle); test: Dose response of androgenic and anabolic activities (Emax, ED50) compared to TP; settings: for Emax (% of Intact Control): doses 0.1-1.0 mg/day; for Relative Afficacy / Relative Potency: relative to TP
Protocol: FIG. 6: Dose response Curves. Rats were left untreated, or treated with 0.1, 0.3, 0.5, 0.75 and 1.0 mg/day Compound VI, Compound VII or testosterone propionate (TP), and the weight of androgen-responsive tissues (prostate—FIG. 6A, semimal vesicles—FIG. 6B and levator ani muscle—FIG. 6C) was determined. The results are plotted as percentage of the intact control.
(§1) Compound VI and Compound VII were synthesized and characterized in the laboratory of Dr. Duane Miller at the University of Tennessee, Memphis, Tenn. Male Sprague-Dawley rats were purchased from Harlan Biosciences (Indianapolis, Ind.). The animals were maintained on a 12-h cycle of light and dark with food and water available ad libitum. All animal studies were reviewed and approved by the Animal Care and Use Committee of The Ohio State University, and conformed to the Principles of Laboratory Animal Care (NIH publication #85-23, revised 1985). Immature male Sprague-Dawley rats weighing 187 to 214 g were randomly distributed into 9 groups of 5 animals. One day before the initiation of drug treatment, groups 4 through 6 and groups 7 through 9 received unilateral or bilateral orchidectomy, respectively, via a midline scrotal incision. […] All drugs given to animals were freshly prepared as solutions in polyethylene glycol 300 (PEG 300). Groups 4 and 7 received treatment with vehicle alone (i.e., PEG 300). Animals in groups 3, 6, and 9 received testosterone propionate (TP, 0.5 mg/day) via implantation of subdermal osmotic pumps (Model 2002, Durect Corporation, Palo Alto, Calif.). Animals in groups 2, 5, and 8 received Compound VI or Compound VII (0.5 mg/day) via implantation of subdermal osmotic pumps. After 14 days of drug treatment, rats were weighed, anesthetized, and sacrificed. Blood samples were collected by venipuncture of the abdominal aorta. Plasma samples were analyzed for testosterone, FSH, LH and osteocalcin. Testosterone concentrations were measured by AniLytics Inc. (Gaithersburg, Md.). FSH and LH levels were measured by the National Hormone and Peptide Program (Dr. A F Parlow, UCLA, CA). Plasma osteocalcin levels were determined using a commercially available rat osteocalcin EIA kit from Biomedical Technologies Inc. (Stoughton, Mass.). The ventral prostates, seminal vesicles, and levator ani muscle were removed and weighed. Osmotic pumps were also removed from animals to check for correct pump operation. The weights of all organs were normalized to body weight, and analyzed for any statistically significant differences between groups using single-factor ANOVA with the alpha value set a priori at p<0.05. The weights of prostates and seminal vesicles were used as indices for evaluation of androgenic activity, and the levator ani muscle weight was used to evaluate the anabolic activity. Statistical analyses of parameters from complete blood count or serum chemical profiling, wherever applicable, were performed by single-factor ANOVA with the alpha value set a priori at p<0.05.

[3] = tested on: myosin heavy chain (MHC) IIb mRNA; test: Myosin heavy chain (MHC) IIb mRNA expression in masseter muscle by RT-PCR; settings: masseter muscle of intact female rats; untreated control = 100%
Source text: MHC is the predominant protein in skeletal muscle encoded by a multigene family expressed in a tissue-specific and developmentally regulated manner [Adams et al 1999]. In steady state, mRNA expression usually parallels the pattern of MHC protein expression. Because transcription of MHC mRNA occurs in advance of MHC protein translation, and the increased sensitivity of RT-PCR compared to western blotting, rapid changes in mRNA expression can be detected and used to analyze the subtle dynamic effects of muscle anabolism [Wright et al 1997].
The masseter muscle dissected from untreated intact female rats was set as the control level (representing 100%) of MHC IIb expression (FIG. 7A). Intact female rats treated with androgens were evaluated against the untreated controls for the effect of treatment on MHC IIb from masseter.

[4] = Plasma osteocalcin levels in male rats of varying hormonal status; settings: 0.5 mg/day; for Plasma osteocalcin levels: 14 days, n = 5
Source text: as §1

[5] = Plasma testosterone levels in male rats of varying hormonal status; settings: 0.5 mg/day; for Plasma testosterone levels: osmotic pump, 14 days, n = 5
Source text: as §1

[6] = tested on: androgen-responsive tissues (prostate, seminal vesicles, levator ani muscle); test: Androgenic and anabolic activity: weight of androgen-responsive tissues in intact, hemi-orchidectomized and castrated rats; settings: 0.5 mg/day, 14 days, n = 5
Protocol: FIG. 3: Androgenic and Anabolic activity of Compound VI and Compound VII in rats. Male rats with normal testicular function (no surgical manipulation) were left untreated (Intact), treated with compound VI (0.5 mg/day), compound VII (0.5 mg/day) or testosterone proprionate (TP, 0.5 mg/day), and the weight of androgen-responsive tissues (prostate—FIG. 3A, semimal vesicles—FIG. 3B, and levator ani muscle—FIG. 3C) was determined.
(§2) FIG. 4: Androgenic and Anabolic activity of Compound VI and Compound VII in rats. Male rats received unilateral orchidectomy (Hemi-orchidectomized) and were left untreated (Intact), treated with vehicle alone (PEG 300), Compound VI (0.5 mg/day), Compound VII (0.5 mg/day), or testosterone proprionate (TP, 0.5 mg/day), and the weight of androgen-responsive tissues (prostate—FIG. 4A, semimal vesicles—FIG. 4B, and levator ani muscle—FIG. 4C) was determined.
as §2, with “5:” for “4:”, “bilateral” for “unilateral”, “(Castrated)” for “(Hemi-orchidectomized)”, “5A,” for “4A,”, “5B,” for “4B,”, “5C)” for “4C)”
as §1

[7] = Plasma LH levels in male rats of varying hormonal status; settings: 0.5 mg/day; for Plasma LH levels: 14 days, n = 5
Source text: as §1

[8] = Plasma FSH levels in male rats of varying hormonal status; settings: 0.5 mg/day; for Plasma FSH levels: 14 days, n = 5
Source text: as §1

[9] = TP statement for castrated male rats

C[C@]12CCC(=O)C[C@@H]1CC[C@@H]1[C@@H]2CC[C@]2(C)[C@@H](O)CC[C@@H]12 [DHT, dihydrotestosterone, reference compound]
potency comparison Compound VI versus DHT ([1]; ovariectomized female rat bone model): less potent than Compound VI | increase in BMC ([1]; ovariectomized female rats, 1.0 mg/day, treated for 120 days (group 5; DHT 1 mg/day)): 15%

C[C@](O)(COc1ccc(F)cc1)C(=O)Nc1ccc([N+](=O)[O-])c(C(F)(F)F)c1 [GTx-014]
ED50 ([2]; Anabolic, Levator Ani Muscle): 0.44 ± 0.01 mg/day | Emax (% of Intact Control) ([2]; Anabolic, Levator Ani Muscle): 74.9 ± 0.4 % of Intact Control | Relative Afficacy ([2]; Anabolic, Levator Ani Muscle): 0.72 | Relative Potency ([2]; Anabolic, Levator Ani Muscle): 0.34 | ED50 ([2]; Androgenic, Prostate): 0.42 ± 0.04 mg/day | Emax (% of Intact Control) ([2]; Androgenic, Prostate): 14.5 ± 0.7 % of Intact Control | Relative Afficacy ([2]; Androgenic, Prostate): 0.12 | Relative Potency ([2]; Androgenic, Prostate): 0.31 | ED50 ([2]; Androgenic, Seminal Vesicle): 0.38 ± 0.26 mg/day | Emax (% of Intact Control) ([2]; Androgenic, Seminal Vesicle): 12.7 ± 3.1 % of Intact Control | Relative Afficacy ([2]; Androgenic, Seminal Vesicle): 0.18 | Relative Potency ([2]; Androgenic, Seminal Vesicle): 0.32

CCC(=O)O[C@H]1CC[C@H]2[C@@H]3CCC4=CC(=O)CC[C@]4(C)[C@H]3CC[C@]12C [TP, testosterone propionate, reference compound]
MHC type IIb transcription, of untreated control [3]: 133% | effect on plasma osteocalcin levels ([4]; Compound VI statement for hemi-orchidectomized and castrated animals): no effect | Plasma osteocalcin levels ([4]; castrated male rats): 65.976 ± 11.213 ng/mL | Plasma osteocalcin levels ([4]; hemi-orchidectomized male rats): 77.236 ± 24.418 ng/mL | Plasma osteocalcin levels ([4]; intact male rats): 74.952 ± 15.399 ng/mL | ED50 ([2]; Anabolic, Levator Ani Muscle): 0.15 ± 0.03 mg/day | Emax (% of Intact Control) ([2]; Anabolic, Levator Ani Muscle): 104.2 ± 10.1 % of Intact Control | Relative Afficacy ([2]; Anabolic, Levator Ani Muscle): 1.00 | Relative Potency ([2]; Anabolic, Levator Ani Muscle): 1.00 | ED50 ([2]; Androgenic, Prostate): 0.13 ± 0.03 mg/day | Emax (% of Intact Control) ([2]; Androgenic, Prostate): 120.6 ± 13.4 % of Intact Control | Relative Afficacy ([2]; Androgenic, Prostate): 1.00 | Relative Potency ([2]; Androgenic, Prostate): 1.00 | ED50 ([2]; Androgenic, Seminal Vesicle): 0.12 ± 0.02 mg/day | Emax (% of Intact Control) ([2]; Androgenic, Seminal Vesicle): 70.0 ± 18.8 % of Intact Control | Relative Afficacy ([2]; Androgenic, Seminal Vesicle): 1.00 | Relative Potency ([2]; Androgenic, Seminal Vesicle): 1.00 | plasma testosterone levels versus controls ([5]; castrated male rats): higher plasma testosterone levels | Plasma testosterone levels ([5]; castrated male rats): 0.258 ± 0.103 ng/mL | Plasma testosterone levels ([5]; hemi-orchidectomized male rats): 2.366 ± 1.232 ng/mL | Plasma testosterone levels ([5]; intact male rats): 1.482 ± 0.416 ng/mL | Levator Ani weight ([6]; castrated rats): 87.27 ± 10.25 % of intact control | Prostate weight ([6]; castrated rats): 76.78 ± 10.43 % of intact control | Seminal Vesicle weight ([6]; castrated rats): 63.48 ± 17.05 % of intact control | Levator Ani weight ([6]; hemi-orchidectomized rats): 98.63 ± 10.47 % of intact control | Prostate weight ([6]; hemi-orchidectomized rats): 98.57 ± 7.98 % of intact control | Seminal Vesicle weight ([6]; hemi-orchidectomized rats): 114.19 ± 23.81 % of intact control | Levator Ani weight ([6]; intact rats): 95.61 ± 9.34 % of intact control | Prostate weight ([6]; intact rats): 97.45 ± 10.82 % of intact control | Seminal Vesicle weight ([6]; intact rats): 103.95 ± 13.23 % of intact control | effect on plasma LH levels [7, 9]: significant decrease | Plasma LH levels ([7]; castrated male rats): 6.702 ± 1.513 ng/mL | Plasma LH levels ([7]; hemi-orchidectomized male rats): 0.124 ± 0.092 ng/mL | Plasma LH levels ([7]; intact male rats): 0.168 ± 0.173 ng/mL | effect on plasma FSH levels [8, 9]: significant decrease | Plasma FSH levels ([8]; castrated male rats): 58.0 ± 6.9 ng/mL | Plasma FSH levels ([8]; hemi-orchidectomized male rats): 17.2 ± 3.3 ng/mL | Plasma FSH levels ([8]; intact male rats): 11.4 ± 1.7 ng/mL

CC(=O)Nc1ccc(OC[C@](C)(O)C(=O)Nc2ccc([N+](=O)[O-])c(C(F)(F)F)c2)cc1 [GTx-017]
ED50 ([2]; Anabolic, Levator Ani Muscle): 0.14 ± 0.01 mg/day | Emax (% of Intact Control) ([2]; Anabolic, Levator Ani Muscle): 101.0 ± 1.0 % of Intact Control | Relative Afficacy ([2]; Anabolic, Levator Ani Muscle): 0.97 | Relative Potency ([2]; Anabolic, Levator Ani Muscle): 1.07 | ED50 ([2]; Androgenic, Prostate): 0.43 ± 0.01 mg/day | Emax (% of Intact Control) ([2]; Androgenic, Prostate): 35.2 ± 0.4 % of Intact Control | Relative Afficacy ([2]; Androgenic, Prostate): 0.29 | Relative Potency ([2]; Androgenic, Prostate): 0.30 | ED50 ([2]; Androgenic, Seminal Vesicle): 0.55 ± 0.02 mg/day | Emax (% of Intact Control) ([2]; Androgenic, Seminal Vesicle): 28.5 ± 0.8 % of Intact Control | Relative Afficacy ([2]; Androgenic, Seminal Vesicle): 0.40 | Relative Potency ([2]; Androgenic, Seminal Vesicle): 0.22
